How the values were obtained:
[1] = refractive index (Na D-line) (dimensionless); xn = mol fraction of the nth substance listed; conditions: 101 kPa, Liquid, Standard Abbe refractometry
[2] = xn = mol fraction of the nth substance listed; conditions: 101 kPa, Liquid; for viscosity: Stabinger viscometer; for mass density: Vibrating tube method

CCn1cc[n+](C)c1.NCC(=O)[O-] [1-ethyl-3-methylimidazolium ammonioacetate] + CCn1cc[n+](C)c1.N#C[C-](C#N)C#N
Conditions | mass density, [2] [kg/m3] | refractive index, [1] | viscosity, [2] [mPa·s]
293.15 K, x2 = 0 | 1164.3 | 1.52134 | 240.18
293.15 K, x2 = 0.2498 | 1140.2 | 1.52032 | 94.03
293.15 K, x2 = 0.5001 | 1118.4 | 1.51815 | 53.98
293.15 K, x2 = 0.7501 | 1101.2 | 1.51562 | 29.05
298.15 K, x2 = 0 | 1161.2 | 1.51997 | 171.97
298.15 K, x2 = 0.2498 | 1136.9 | 1.51892 | 70.85
298.15 K, x2 = 0.5001 | 1115 | 1.51656 | 42.14
298.15 K, x2 = 0.7501 | 1097.8 | 1.51399 | 23.45
303.15 K, x2 = 0 | 1158.1 | 1.5186 | 126.19
303.15 K, x2 = 0.2498 | 1133.7 | 1.51743 | 54.7
303.15 K, x2 = 0.5001 | 1111.7 | 1.51505 | 33.55
303.15 K, x2 = 0.7501 | 1094.4 | 1.51238 | 19.43
308.15 K, x2 = 0 | – | 1.51724 | 95.04
308.15 K, x2 = 0.2498 | – | 1.51596 | 43.19
308.15 K, x2 = 0.5001 | – | 1.51355 | –
308.15 K, x2 = 0.7501 | – | 1.5108 | –
313.15 K, x2 = 0 | – | 1.51585 | –
313.15 K, x2 = 0.2498 | – | 1.51457 | –
313.15 K, x2 = 0.5001 | – | 1.51205 | –
313.15 K, x2 = 0.7501 | – | 1.50922 | –
318.15 K, x2 = 0 | – | 1.5145 | –
318.15 K, x2 = 0.2498 | – | 1.51315 | –
318.15 K, x2 = 0.5001 | – | 1.51057 | –
318.15 K, x2 = 0.7501 | – | 1.50764 | –
323.15 K, x2 = 0 | – | 1.51313 | –
323.15 K, x2 = 0.2498 | – | 1.51173 | –
323.15 K, x2 = 0.5001 | – | 1.50908 | –
323.15 K, x2 = 0.7501 | – | 1.50609 | –
328.15 K, x2 = 0 | – | 1.51179 | –
328.15 K, x2 = 0.2498 | – | 1.51031 | –
328.15 K, x2 = 0.5001 | – | 1.5076 | –
328.15 K, x2 = 0.7501 | – | 1.50449 | –
333.15 K, x2 = 0 | – | 1.51041 | –
333.15 K, x2 = 0.2498 | – | 1.5089 | –
333.15 K, x2 = 0.5001 | – | 1.50613 | –
333.15 K, x2 = 0.7501 | – | 1.50295 | –
338.15 K, x2 = 0 | – | 1.50904 | –
338.15 K, x2 = 0.2498 | – | 1.50751 | –
338.15 K, x2 = 0.5001 | – | 1.50462 | –
338.15 K, x2 = 0.7501 | – | 1.50143 | –
343.15 K, x2 = 0 | – | 1.50769 | –
343.15 K, x2 = 0.2498 | – | 1.50614 | –
343.15 K, x2 = 0.5001 | – | 1.50315 | –
343.15 K, x2 = 0.7501 | – | 1.49987 | –
348.15 K, x2 = 0 | – | 1.50637 | –
348.15 K, x2 = 0.2498 | – | 1.50472 | –
348.15 K, x2 = 0.5001 | – | 1.5017 | –
348.15 K, x2 = 0.7501 | – | 1.49834 | –
353.15 K, x2 = 0 | – | 1.50495 | –
353.15 K, x2 = 0.2498 | – | 1.50334 | –
353.15 K, x2 = 0.5001 | – | 1.50021 | –
353.15 K, x2 = 0.7501 | – | 1.49682 | –

Source: the NIST ThermoML archive (doi:10.1021/acs.jced.5b00242)
